Experiments:
ACHN = assay: Cytotoxicity against human ACHN cells at 10 uM after 48 hrs by SRB assay; type: functional; details: read-out: GI
U-251 = assay: Cytotoxicity against human U251 cells at 10 uM after 48 hrs by SRB assay; type: functional; details: U-251, 48 h, read-out: GI
SK-MEL-2 = assay: Cytotoxicity against human SK-MEL-2 cells at 10 uM after 48 hrs by SRB assay; type: functional; details: SK-MEL-2, 48 h, read-out: GI
786-0 = assay: Cytotoxicity against human 786-0 cells at 10 uM after 48 hrs by SRB assay; type: functional; details: 786-0, 48 h, read-out: GI
HT-29 = assay: Cytotoxicity against human HT-29 cells at 10 uM after 48 hrs by SRB assay; type: functional; details: HT-29, 48 h, read-out: GI
SF-295 = assay: Cytotoxicity against human SF295 cells at 10 uM after 48 hrs by SRB assay; type: functional; details: SF-295, 48 h, read-out: GI
A549 = assay: Cytotoxicity against human A549 cells at 10 uM after 48 hrs by SRB assay; type: functional; details: A549, 48 h, read-out: GI
HCT-15 = assay: Cytotoxicity against human HCT15 cells at 10 uM after 48 hrs by SRB assay; type: functional; details: HCT-15, 48 h, read-out: GI
OVCAR-3 = assay: Cytotoxicity against human OVCAR3 cells at 10 uM after 48 hrs by SRB assay; type: functional; details: OVCAR-3, 48 h, read-out: GI
UO-31 = assay: Cytotoxicity against human UO31 cells at 10 uM after 48 hrs by SRB assay; type: functional; details: UO-31, 48 h, read-out: GI
Hs-578T = assay: Cytotoxicity against human Hs578T cells at 10 uM after 48 hrs by SRB assay; type: functional; details: read-out: GI
SNB-75 = assay: Cytotoxicity against human SNB75 cells at 10 uM after 48 hrs by SRB assay; type: functional; details: SNB-75, 48 h, read-out: GI
HOP-62 = assay: Cytotoxicity against human HOP62 cells at 10 uM after 48 hrs by SRB assay; type: functional; details: HOP-62, 48 h, read-out: GI
OVCAR-5 = assay: Cytotoxicity against human OVCAR5 cells at 10 uM after 48 hrs by SRB assay; type: functional; details: OVCAR-5, 48 h, read-out: GI
DU-145 = assay: Cytotoxicity against human DU145 cells at 10 uM after 48 hrs by SRB assay; type: functional; details: DU-145, 48 h, read-out: GI
SK-MEL-28 = assay: Cytotoxicity against human SK-MEL-28 cells at 10 uM after 48 hrs by SRB assay; type: functional; details: SK-MEL-28, 48 h, read-out: GI
NCI-H322M = assay: Cytotoxicity against human NCI-H322M cells at 10 uM after 48 hrs by SRB assay; type: functional; details: read-out: GI
[1] = n-Octanol-phosphate buffer partition coefficient, log P of the compound at pH 7.4 by shake flask method; type: physicochemical
[2] = Cytotoxicity against human EKVX cells at 10 uM after 48 hrs by SRB assay; type: functional; details: read-out: GI
HL-60(TB) = assay: Cytotoxicity against human HL-60(TB) cells at 10 uM after 48 hrs by SRB assay; type: functional; details: HL-60, 48 h, read-out: GI
SN12C = assay: Cytotoxicity against human SN12C cells at 10 uM after 48 hrs by SRB assay; type: functional; details: read-out: GI
KM12 = assay: Cytotoxicity against human KM12 cells at 10 uM after 48 hrs by SRB assay; type: functional; details: KM12, 48 h, read-out: GI
CAKI-1 = assay: Cytotoxicity against human Caki1 cells at 10 uM after 48 hrs by SRB assay; type: functional; details: CAKI-1, 48 h, read-out: GI
UACC-257 = assay: Cytotoxicity against human UACC257 cells at 10 uM after 48 hrs by SRB assay; type: functional; details: UACC-257, 48 h, read-out: GI
SF-268 = assay: Cytotoxicity against human SF268 cells at 10 uM after 48 hrs by SRB assay; type: functional; details: SF-268, 48 h, read-out: GI
NCI-H23 = assay: Cytotoxicity against human NCI-H23 cells at 10 uM after 48 hrs by SRB assay; type: functional; details: NCI-H23, 48 h, read-out: GI
HCT-116 = assay: Cytotoxicity against human HCT116 cells at 10 uM after 48 hrs by SRB assay; type: functional; details: HCT-116, 48 h, read-out: GI
RPMI-8226 = assay: Cytotoxicity against human RPMI8226 cells at 10 uM after 48 hrs by SRB assay; type: functional; details: RPMI-8226, 48 h, read-out: GI
SF-539 = assay: Cytotoxicity against human SF539 cells at 10 uM after 48 hrs by SRB assay; type: functional; details: SF-539, 48 h, read-out: GI
SR = assay: Cytotoxicity against human SR cells at 10 uM after 48 hrs by SRB assay; type: functional; details: read-out: GI
NCI-H226 = assay: Cytotoxicity against human NCI-H226 cells at 10 uM after 48 hrs by SRB assay; type: functional; details: NCI-H226, 48 h, read-out: GI
MDA-MB-468 = assay: Cytotoxicity against human MDA-MB-468 cells at 10 uM after 48 hrs by SRB assay; type: functional; details: MDA-MB-468, 48 h, read-out: GI
NCI/ADR-RES = assay: Cytotoxicity against human NCI/ADR-RES cells at 10 uM after 48 hrs by SRB assay; type: functional; details: read-out: GI
SK-OV-3 = assay: Cytotoxicity against human SKOV3 cells at 10 uM after 48 hrs by SRB assay; type: functional; details: SK-OV-3, 48 h, read-out: GI
SNB-19 = assay: Cytotoxicity against human SNB19 cells at 10 uM after 48 hrs by SRB assay; type: functional; details: SNB-19, 48 h, read-out: GI
PC-3 = assay: Cytotoxicity against human PC3 cells at 10 uM after 48 hrs by SRB assay; type: functional; details: PC-3, 48 h, read-out: GI
M14 = assay: Cytotoxicity against human M14 cells at 10 uM after 48 hrs by SRB assay; type: functional; details: M14, 48 h, read-out: GI
MCF7 = assay: Cytotoxicity against human MCF7 cells at 10 uM after 48 hrs by SRB assay; type: functional; details: MCF7, 48 h, read-out: GI
K562 = assay: Cytotoxicity against human K562 cells at 10 uM after 48 hrs by SRB assay; type: functional; details: K562, 48 h, read-out: GI
MDA-MB-231 = assay: Cytotoxicity against human MDA-MB-231 cells at 10 uM after 48 hrs by SRB assay; type: functional; details: MDA-MB-231, 48 h, read-out: GI
SW-620 = assay: Cytotoxicity against human SW620 cells at 10 uM after 48 hrs by SRB assay; type: functional; details: SW-620, 48 h, read-out: GI
LOX IMVI = assay: Cytotoxicity against human LOXIMVI cells at 10 uM after 48 hrs by SRB assay; type: functional; details: read-out: GI
COLO 205 = assay: Cytotoxicity against human COLO205 cells at 10 uM after 48 hrs by SRB assay; type: functional; details: COLO 205, 48 h, read-out: GI

C=CCn1c(C)nc2cc(Nc3nc(N4CCCC4)nc4ccccc34)ccc21
inhibition of growth at 10 µM (ACHN): < 10% | inhibition of growth at 10 µM (U-251): < 10% | inhibition of growth at 10 µM (SK-MEL-2): < 10% | inhibition of growth at 10 µM (786-0): 11.1% | inhibition of growth at 10 µM (HT-29): < 10% | inhibition of growth at 10 µM (SF-295): < 10% | inhibition of growth at 10 µM (A549): 10.1% | inhibition of growth at 10 µM (HCT-15): < 10% | inhibition of growth at 10 µM (OVCAR-3): < 10% | inhibition of growth at 10 µM (UO-31): 10.1% | inhibition of growth at 10 µM (Hs-578T): < 10% | inhibition of growth at 10 µM (SNB-75): < 10% | inhibition of growth at 10 µM (HOP-62): < 10% | inhibition of growth at 10 µM (OVCAR-5): < 10% | inhibition of growth at 10 µM (DU-145): < 10% | inhibition of growth at 10 µM (SK-MEL-28): < 10% | inhibition of growth at 10 µM (NCI-H322M): < 10% | logD [1]: 2.51 | inhibition of growth at 10 µM [2]: < 10% | inhibition of growth at 10 µM (HL-60(TB)): < 10% | inhibition of growth at 10 µM (SN12C): < 10% | inhibition of growth at 10 µM (KM12): < 10% | inhibition of growth at 10 µM (CAKI-1): 10.2% | inhibition of growth at 10 µM (UACC-257): < 10% | inhibition of growth at 10 µM (SF-268): < 10% | inhibition of growth at 10 µM (NCI-H23): < 10% | inhibition of growth at 10 µM (HCT-116): < 10% | inhibition of growth at 10 µM (RPMI-8226): 12.2% | inhibition of growth at 10 µM (SF-539): < 10% | inhibition of growth at 10 µM (SR): 11% | inhibition of growth at 10 µM (NCI-H226): 22% | inhibition of growth at 10 µM (MDA-MB-468): 13.3% | inhibition of growth at 10 µM (NCI/ADR-RES): < 10% | inhibition of growth at 10 µM (SK-OV-3): < 10% | inhibition of growth at 10 µM (SNB-19): < 10% | inhibition of growth at 10 µM (PC-3): 18.2% | inhibition of growth at 10 µM (M14): < 10% | inhibition of growth at 10 µM (MCF7): < 10% | inhibition of growth at 10 µM (K562): 14.9% | inhibition of growth at 10 µM (MDA-MB-231): < 10% | inhibition of growth at 10 µM (SW-620): < 10% | inhibition of growth at 10 µM (LOX IMVI): < 10%

C=CCn1c(C)nc2ccc(Nc3nc(N4CCCC4)nc4ccccc34)cc21
inhibition of growth at 10 µM (ACHN): < 10% | inhibition of growth at 10 µM (U-251): < 10% | inhibition of growth at 10 µM (SK-MEL-2): < 10% | inhibition of growth at 10 µM (786-0): 24% | inhibition of growth at 10 µM (HT-29): 94.3% | inhibition of growth at 10 µM (SF-295): 16.3% | inhibition of growth at 10 µM (A549): 25.4% | inhibition of growth at 10 µM (HCT-15): 20.6% | inhibition of growth at 10 µM (OVCAR-3): < 10% | inhibition of growth at 10 µM (UO-31): 31.9% | inhibition of growth at 10 µM (Hs-578T): 13.1% | inhibition of growth at 10 µM (SNB-75): 16.3% | inhibition of growth at 10 µM (HOP-62): < 10% | inhibition of growth at 10 µM (OVCAR-5): < 10% | inhibition of growth at 10 µM (DU-145): 26.2% | inhibition of growth at 10 µM (SK-MEL-28): 19.8% | inhibition of growth at 10 µM (NCI-H322M): < 10% | logD [1]: 2.9 | inhibition of growth at 10 µM (COLO 205): < 10% | inhibition of growth at 10 µM [2]: < 10% | inhibition of growth at 10 µM (HL-60(TB)): 11.5% | inhibition of growth at 10 µM (SN12C): < 10% | inhibition of growth at 10 µM (KM12): 29.9% | inhibition of growth at 10 µM (CAKI-1): 15% | inhibition of growth at 10 µM (UACC-257): < 10% | inhibition of growth at 10 µM (SF-268): 13.1% | inhibition of growth at 10 µM (NCI-H23): 11.3% | inhibition of growth at 10 µM (HCT-116): 80.3% | inhibition of growth at 10 µM (RPMI-8226): 45% | inhibition of growth at 10 µM (SF-539): < 10% | inhibition of growth at 10 µM (SR): 94.2% | inhibition of growth at 10 µM (NCI-H226): < 10% | inhibition of growth at 10 µM (MDA-MB-468): < 10% | inhibition of growth at 10 µM (NCI/ADR-RES): 16.7% | inhibition of growth at 10 µM (SK-OV-3): < 10% | inhibition of growth at 10 µM (SNB-19): < 10% | inhibition of growth at 10 µM (PC-3): < 10% | inhibition of growth at 10 µM (M14): 10.3% | inhibition of growth at 10 µM (MCF7): 38.1% | inhibition of growth at 10 µM (K562): 98% | inhibition of growth at 10 µM (MDA-MB-231): 58% | inhibition of growth at 10 µM (SW-620): 24.9% | inhibition of growth at 10 µM (LOX IMVI): 97.5%

— ChEMBL document CHEMBL2380212, “Synthesis, single crystal and antitumor activities of benzimidazole-quinazoline hybrids” (Bioorg Med Chem Lett, 2013)
